Experimental data reported in ChEMBL document CHEMBL1201862, “PubChem BioAssay data set” (2004).
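Cultured in 96-well plates, cells were exposed to test compound for 48 hours across five concentrations. GI50 is the concentration that inhibits growth by half.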 Active and inactive are the calls of the source. Cut-off read from the data, not from the text of the source: active = GI50 up to about 1.1 µM and inactive = higher. Residues, ends and D or L forms follow the SMILES beside them. *: point of attachment. Boc = CC(C)(C)OC(=O)*; OBn = c1ccc(CO*)cc1

Key:
Assay in all cases: NCI tumour cell line growth inhibition, 48 h
[1] = system: HOP-18
[2] = system: DMS-114
[3] = system: DLD-1
[4] = system: KM-20L2
[5] = system: LXFL 529
[6] = system: XF498
[7] = system: T47D
[8] = system: BT-549

Row | Compound | GI50 [7] | GI50 [8] | also measured
1 | O=C(O)c1c[nH]c2c(ccc3ncccc32)c1=O | – | – | GI50 [1]: > 100 µM (inactive); GI50 [2]: > 100 µM (inactive); GI50 [3]: > 100 µM (inactive); GI50 [4]: > 100 µM (inactive); GI50 [5]: > 100 µM (inactive)
2 | CC(=O)OCC1OC(OC2C(CSC3OC(COC(C)=O)C(OC(C)=O)C(OC(C)=O)C3OC(C)=O)OC(OC(C)=O)C(OC(C)=O)C2OC(C)=O)C(OC(C)=O)C(OC(C)=O)C1OC(C)=O (configuration not stated) | – | – | GI50 [2]: > 100 µM (inactive); GI50 [3]: > 100 µM (inactive); GI50 [6]: > 100 µM (inactive); GI50 [4]: > 100 µM (inactive); GI50 [5]: > 100 µM (inactive)
3 | O=C1CC(CC(=O)c2ccc(Br)cc2)C(O)=C1C(=O)c1ccc(Br)cc1 (configuration not stated) | 71.6 µM (inactive) | – | –
4 | NNC(=O)CCC(NS(=O)(=O)c1ccc(Cl)cc1)C(=O)NN (configuration not stated) | > 100 µM (inactive) | > 100 µM (inactive) | –
5 | CCOC(=O)C1C(c2ccco2)C2(C#N)C(=N)OC1(C)C2(C#N)C#N (configuration not stated) | > 100 µM (inactive) | – | –
6 | COc1ccc(Nc2nnc(-c3nsc4ccccc34)s2)cc1 | 20.1 µM (inactive) | – | GI50 [1]: 0.0149 µM (active); GI50 [2]: 59.4 µM (inactive); GI50 [4]: > 100 µM (inactive); GI50 [5]: > 100 µM (inactive)
7 | COc1nc2ncc([C@@H](O)[C@H](O)CO)nc2c(=O)n1C | > 100 µM (inactive) | > 100 µM (inactive) | –
8 | COc1ccc(/N=N/C(=N/NC(=O)c2ccccc2)c2ccc(N(CCC#N)CCC#N)cc2C)cc1 | 53.7 µM (inactive) | 52.4 µM (inactive) | –
9 | Cc1ccc2[nH]c3c(c2c1)CCC/C3=N/N=C(N)N | – | 14.5 µM (inactive) | –
10 | COc1c(-c2ccc(F)cc2)oc2cc(O)cc(O)c2c1=O | 18.8 µM (inactive) | – | –
11 | O=C(OCCN=c1c2ccccc2ccc2ccccc12)c1ccc([N+](=O)[O-])cc1 | > 100 µM (inactive) | > 100 µM (inactive) | –
12 | Cc1ccc2nc(N/N=C/c3sccc3C)cc(C)c2c1 | > 100 µM (inactive) | > 100 µM (inactive) | –
13 | O=C(NS(=O)(=O)c1ccccc1)C(Cc1ccccc1)C(Cc1ccccc1)C(=O)NS(=O)(=O)c1ccccc1 (configuration not stated) | – | – | GI50 [1]: > 100 µM (inactive); GI50 [2]: > 100 µM (inactive); GI50 [3]: > 100 µM (inactive); GI50 [4]: > 100 µM (inactive); GI50 [5]: > 100 µM (inactive)
14 | Cn1cccc1-c1ccc(-c2ccc(CO)[se]2)[se]1 | – | 20.2 µM (inactive) | –
15 | CN1CCn2c(Br)ccc2C1=O | – | – | GI50 [3]: > 10 µM (inactive); GI50 [6]: > 100 µM (inactive); GI50 [4]: > 100 µM (inactive); GI50 [5]: > 100 µM (inactive)
16 | COc1cc(/C=C2/CCCc3ccccc3C2=O)cc(OC)c1OC | 5.92 µM (inactive) | 13.8 µM (inactive) | –
17 | Cc1ccc(S(=O)(=O)N/N=C2\C3CC4CC(C3)C2C4)cc1 (configuration not stated) | > 100 µM (inactive) | > 100 µM (inactive) | –

Row | Compound | GI50 [7] | GI50 [8] | also measured
18 | CC(C)(C)OC(=O)NNCC(O)COc1ccccc1 (configuration not stated) | > 100 µM (inactive) | > 100 µM (inactive) | –
19 | CC(C)N(C(=O)C12C3(C(=O)C(C)(C)C)C4C5(C#N)C3C1(C(=O)C(C)(C)C)C5C42C(=O)C(C)(C)C)C(C)C (configuration not stated) | > 100 µM (inactive) | > 100 µM (inactive) | –
20 | O=S1(=O)c2ccccc2N(O)C2=NCCN21 | – | – | GI50 [2]: > 100 µM (inactive); GI50 [3]: > 100 µM (inactive); GI50 [4]: > 100 µM (inactive); GI50 [5]: > 100 µM (inactive)
21 | O=C(Oc1cncc(Cl)c1)c1cc2ccccc2sc1=O | > 100 µM (inactive) | 57.7 µM (inactive) | –
22 | N#CC(CCN1CCC(Nc2ccccc2)(c2nnnn2C2CCCCC2)CC1)(c1ccccc1)c1ccccc1 | – | > 100 µM (inactive) | –
23 | Cc1ccccc1C(O)(c1nccn1C)c1nccn1C | > 100 µM (inactive) | > 100 µM (inactive) | –
24 | CC(=O)OCC1OC(n2c(C)c(/N=N/c3ccc(C)cc3)c(C)c(C#N)c2=S)C(OC(C)=O)C(OC(C)=O)C1OC(C)=O (configuration not stated) | > 100 µM (inactive) | > 100 µM (inactive) | –
25 | NS(=O)(=O)c1nnc(NSc2ccc([N+](=O)[O-])cc2)s1 | > 100 µM (inactive) | > 100 µM (inactive) | –
26 | C=C1C2C[C@@H]3O[C@H]4C[C@H]5O[C@@]6(C[C@@H]7O[C@]8(C[C@H](C)[C@@H]9O[C@@H]%10CC(CO)O[C@@H]%10C[C@@H]9O8)C[C@H](C)[C@@H]7O6)C[C@H]5O[C@H]4[C@H](C)[C@H]3OC(=O)C[C@H]3CC[C@@H]4OC5[C@H]6O[C@]7(CC[C@H]8CC(=C)[C@H](CC[C@@H](C[C@H]1C)O2)O8)CC6O[C@@H]5[C@@H](O7)[C@H]4O3 (some centres not stated) | – | < 0.0001 µM (active) | –
27 | CC1OC(OC2C(OC(=O)[C@]34CCC(C)(C)CC3C3=CCC5[C@@]6(C)C[C@H](O)[C@H](OC7OC(COC8OC(CO)C(O)C(O)C8O)C(O)C(O)C7O)[C@@](C)(C(=O)O)C6CC[C@@]5(C)C3(C)CC4)OCC(O)C2O)C(O)C(O)C1OC1OCC(O)C(O)C1O (some centres not stated) | – | – | GI50 [1]: > 100 µM (inactive); GI50 [2]: > 100 µM (inactive); GI50 [3]: > 100 µM (inactive); GI50 [4]: > 100 µM (inactive)
28 | CCN(CC)CCC(=O)/C=C/c1ccccc1 | – | 6.9 µM (inactive) | –
29 | CC(C)=CCOc1cc(NC(=S)c2ccsc2C)ccc1Cl | 1.64 µM (inactive) | 23.6 µM (inactive) | –
30 | CC(NC(=O)CNC(=O)OC(C)(C)C)C(=O)NC(Cc1ccccc1)C(=O)OCc1ccccc1 (stereo not drawn) (Boc-Gly-Ala-Phe-OBn; configuration not given here) | > 100 µM (inactive) | > 100 µM (inactive) | –
31 | CC[C@@]1(O)C(=O)OCc2c1cc1n(c2=O)Cc2c-1nc1ccc(O)cc1c2[Si](C)(C)C(C)(C)C [AR-67] | < 0.01 µM (active) | < 0.0157 µM (active) | –
32 | CC(C)=CCc1c2c(c3occ(-c4ccc(O)cc4)c(=O)c3c1O)CC(C(C)(C)O)O2 (configuration not stated) [SENEGALENSIN] | 10.3 µM (inactive) | 17 µM (inactive) | –
33 | CCCC(=O)OCC(COC(=O)CCC)OC(=O)CCC [TRIBUTYRIN] | > 100 µM (inactive) | 97.3 µM (inactive) | –
34 | Nc1nc(N)c2cc(Sc3cccc(C(F)(F)F)c3)ccc2n1 [WR-159412] | – | 6.07 µM (inactive) | –
